Results published in PubChem BioAssay AID1963448 (Molecular Pharmacology Branch, DTP, NCI, 2024).
Blank lines part the entries; values can stand above or below the compound they belong to.

System: 616215-338-R-J1-PDC complex spheroid growth, % test/control
Test: Anticancer human tumor 616215-338-R-J1-PDC patient-derived colon adenocarcinoma cell line growth inhibition [Asc]
Conditions: for IC50: curve of first compound; for viability, T/C: stronger effect = lower value
Method in brief: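 Stromal components (HUVEC and hMSC) are co-assembled with the cancer cells into multicellular spheroids. Drugs are then added singly or paired, at concentrations falling by half-log increments from a clinically achievable maximum, capped at 10 microM without known Cmax.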

[1] = second compound 0.1 µM, first compound 0.0316 µM
[2] = second compound 0.1 µM, first compound 0.1 µM
[3] = second compound 0.1 µM, first compound 0.316 µM
[4] = second compound 0.1 µM, first compound 1 µM
[5] = second compound 0.316 µM, first compound 0.0316 µM
[6] = second compound 0.316 µM, first compound 0.1 µM
[7] = second compound 0.316 µM, first compound 0.316 µM
[8] = second compound 0.316 µM, first compound 1 µM
[9] = second compound 1 µM, first compound 0.0316 µM
[10] = second compound 1 µM, first compound 0.1 µM
[11] = second compound 1 µM, first compound 0.316 µM
[12] = second compound 1 µM, first compound 1 µM
[13] = second compound 3.16 µM, first compound 0.0316 µM
[14] = second compound 3.16 µM, first compound 0.1 µM
[15] = second compound 3.16 µM, first compound 0.316 µM
[16] = second compound 3.16 µM, first compound 1 µM
[17] = second compound 10 µM, first compound 0.0316 µM
[18] = second compound 10 µM, first compound 0.1 µM
[19] = second compound 10 µM, first compound 0.316 µM
[20] = second compound 10 µM, first compound 1 µM
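Further: spheroids exposed to agents for seven days before readout.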
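Wherever viability, T/C is given: 100% = DMSO vehicle control viability.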

IC50 (second compound 0.1 µM): 5430 nM
IC50 (second compound 0.316 µM): 4900 nM
IC50 (second compound 1 µM): 2950 nM
IC50 (second compound 3.16 µM): < 31.6 nM
IC50 (second compound 10 µM): < 31.6 nM
SMILES: C=C(F)C(=O)N1CCN(c2nc(OCC3CCCN3C)nc3c2CCN(c2cccc4cccc(Cl)c24)C3)CC1CC#N (stereo not given) + Cc1c(S(C)(=O)=O)c(-c2cc(F)cc(N3CCN(c4ccc(NS(=O)(=O)c5ccc(NC(CCN6CCC(C(=O)OCCCP(=O)(O)O)CC6)CSc6ccccc6)c(S(=O)(=O)C(F)(F)F)c5)cc4)CC3)c2)c(-c2ccc(Cl)cc2)n1C(C)C
viability, T/C [1]: 93.2%
viability, T/C [2]: 91.6%
viability, T/C [3]: 87.8%
viability, T/C [4]: 100%
viability, T/C (second compound 0.1 µM, first compound 3.16 µM): 96.1%
viability, T/C (second compound 0.1 µM, first compound 10 µM): 0.45%
viability, T/C [5]: 89.1%
viability, T/C [6]: 89.3%
viability, T/C [7]: 85.6%
viability, T/C [8]: 88.5%
viability, T/C (second compound 0.316 µM, first compound 3.16 µM): 80.4%
viability, T/C (second compound 0.316 µM, first compound 10 µM): 0.42%
viability, T/C [9]: 65%
viability, T/C [10]: 70.8%
viability, T/C [11]: 67.9%
viability, T/C [12]: 62.8%
viability, T/C (second compound 1 µM, first compound 3.16 µM): 49.4%
viability, T/C (second compound 1 µM, first compound 10 µM): 0.39%
viability, T/C [13]: 37.2%
viability, T/C [14]: 36.6%
viability, T/C [15]: 35.4%
viability, T/C [16]: 32%
viability, T/C (second compound 3.16 µM, first compound 3.16 µM): 2.23%
viability, T/C (second compound 3.16 µM, first compound 10 µM): 0.3%
viability, T/C [17]: 26.4%
viability, T/C [18]: 23.3%
viability, T/C [19]: 20.3%
viability, T/C [20]: 18.8%
viability, T/C (second compound 10 µM, first compound 3.16 µM): 1.56%
viability, T/C (second compound 10 µM, first compound 10 µM): 0.39%

IC50 (second compound 0.1 µM): 231 nM
IC50 (second compound 0.316 µM): 185 nM
IC50 (second compound 1 µM): 126 nM
IC50 (second compound 3.16 µM): 36.4 nM
IC50 (second compound 10 µM): < 3.16 nM
SMILES: COc1c(OCCCN2CCOCC2)ccc2c3n(c(=NC(=O)c4cnc(N)nc4)nc12)CCN3 + Cc1c(S(C)(=O)=O)c(-c2cc(F)cc(N3CCN(c4ccc(NS(=O)(=O)c5ccc(NC(CCN6CCC(C(=O)OCCCP(=O)(O)O)CC6)CSc6ccccc6)c(S(=O)(=O)C(F)(F)F)c5)cc4)CC3)c2)c(-c2ccc(Cl)cc2)n1C(C)C
viability, T/C (second compound 0.1 µM, first compound 0.00316 µM): 93.1%
viability, T/C (second compound 0.1 µM, first compound 0.01 µM): 100%
viability, T/C [1]: 100%
viability, T/C [2]: 88.2%
viability, T/C [3]: 35.5%
viability, T/C [4]: 7.35%
viability, T/C (second compound 0.316 µM, first compound 0.00316 µM): 90.5%
viability, T/C (second compound 0.316 µM, first compound 0.01 µM): 96.7%
viability, T/C [5]: 105%
viability, T/C [6]: 81.1%
viability, T/C [7]: 22.2%
viability, T/C [8]: 2.69%
viability, T/C (second compound 1 µM, first compound 0.00316 µM): 71.7%
viability, T/C (second compound 1 µM, first compound 0.01 µM): 78.3%
viability, T/C [9]: 78.6%
viability, T/C [10]: 60.6%
viability, T/C [11]: 7.07%
viability, T/C [12]: 0.53%
viability, T/C (second compound 3.16 µM, first compound 0.00316 µM): 45.4%
viability, T/C (second compound 3.16 µM, first compound 0.01 µM): 53.2%
viability, T/C [13]: 63%
viability, T/C [14]: 22.1%
viability, T/C [15]: 1.45%
viability, T/C [16]: 0.19%
viability, T/C (second compound 10 µM, first compound 0.00316 µM): 28.8%
viability, T/C (second compound 10 µM, first compound 0.01 µM): 30.3%
viability, T/C [17]: 35.4%
viability, T/C [18]: 4.88%
viability, T/C [19]: 0.24%
viability, T/C [20]: 0.29%

IC50 (second compound 0.03 µM): > 3000 nM
IC50 (second compound 0.0949 µM): > 3000 nM
IC50 (second compound 0.3 µM): 303 nM
IC50 (second compound 0.949 µM): 338 nM
IC50 (second compound 3 µM): 40.3 nM
SMILES: Cc1nc(N2CCC3(CC2)COC(C)C3N)c(CO)nc1Sc1ccnc(N)c1Cl (stereo not given) + CCN1C(C(=O)NC23CCC(C(=O)O)(CC2)CC3)C(c2cccc(Cl)c2F)C2(C(=O)Nc3cc(Cl)ccc32)C12CCCCC2
viability, T/C (second compound 0.03 µM, first compound 0.00949 µM): 99.4%
viability, T/C (second compound 0.03 µM, first compound 0.03 µM): 102%
viability, T/C (second compound 0.03 µM, first compound 0.0949 µM): 98.4%
viability, T/C (second compound 0.03 µM, first compound 0.3 µM): 91.8%
viability, T/C (second compound 0.03 µM, first compound 0.949 µM): 86.3%
viability, T/C (second compound 0.03 µM, first compound 3 µM): 74.4%
viability, T/C (second compound 0.0949 µM, first compound 0.00949 µM): 101%
viability, T/C (second compound 0.0949 µM, first compound 0.03 µM): 89.2%
viability, T/C (second compound 0.0949 µM, first compound 0.0949 µM): 84.1%
viability, T/C (second compound 0.0949 µM, first compound 0.3 µM): 87.2%
viability, T/C (second compound 0.0949 µM, first compound 0.949 µM): 80.5%
viability, T/C (second compound 0.0949 µM, first compound 3 µM): 64.7%
viability, T/C (second compound 0.3 µM, first compound 0.00949 µM): 69.8%
viability, T/C (second compound 0.3 µM, first compound 0.03 µM): 65.6%
viability, T/C (second compound 0.3 µM, first compound 0.0949 µM): 65.1%
viability, T/C (second compound 0.3 µM, first compound 0.3 µM): 49.4%
viability, T/C (second compound 0.3 µM, first compound 0.949 µM): 39.2%
viability, T/C (second compound 0.3 µM, first compound 3 µM): 35%
viability, T/C (second compound 0.949 µM, first compound 0.00949 µM): 65.9%
viability, T/C (second compound 0.949 µM, first compound 0.03 µM): 65%
viability, T/C (second compound 0.949 µM, first compound 0.0949 µM): 66.6%
viability, T/C (second compound 0.949 µM, first compound 0.3 µM): 48.3%
viability, T/C (second compound 0.949 µM, first compound 0.949 µM): 37.7%
viability, T/C (second compound 0.949 µM, first compound 3 µM): 24.8%
viability, T/C (second compound 3 µM, first compound 0.00949 µM): 53.3%
viability, T/C (second compound 3 µM, first compound 0.03 µM): 49.2%
viability, T/C (second compound 3 µM, first compound 0.0949 µM): 47.8%
viability, T/C (second compound 3 µM, first compound 0.3 µM): 38.8%
viability, T/C (second compound 3 µM, first compound 0.949 µM): 23.9%
viability, T/C (second compound 3 µM, first compound 3 µM): 11.6%
